# From patent publication US20260184707A1, “PHARMACEUTICAL COMPOUNDS FOR THE TREATMENT OF COMPLEMENT MEDIATED DISORDERS” (ALEXION PHARMACEUTICALS, INC., priority 2022, published 2026)
# Target: T1, Human complement C1s enzyme (Homo sapiens, UniProt P09871)
# T1 construct: purified from human serum, Complement Technology, Inc; purchased Complement Technology, Inc; host or cells: human serum (plasma-derived native protein)
# T1 sequence (P09871 438-688 limits assumed): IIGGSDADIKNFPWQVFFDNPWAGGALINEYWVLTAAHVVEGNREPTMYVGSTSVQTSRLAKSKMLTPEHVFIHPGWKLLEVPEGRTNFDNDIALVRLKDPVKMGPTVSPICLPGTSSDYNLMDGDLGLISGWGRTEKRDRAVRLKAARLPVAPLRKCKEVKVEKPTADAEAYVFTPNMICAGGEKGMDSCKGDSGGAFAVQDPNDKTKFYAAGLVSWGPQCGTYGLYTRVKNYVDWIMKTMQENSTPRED
# T1 sequence (P09871 16-437 partner limits assumed): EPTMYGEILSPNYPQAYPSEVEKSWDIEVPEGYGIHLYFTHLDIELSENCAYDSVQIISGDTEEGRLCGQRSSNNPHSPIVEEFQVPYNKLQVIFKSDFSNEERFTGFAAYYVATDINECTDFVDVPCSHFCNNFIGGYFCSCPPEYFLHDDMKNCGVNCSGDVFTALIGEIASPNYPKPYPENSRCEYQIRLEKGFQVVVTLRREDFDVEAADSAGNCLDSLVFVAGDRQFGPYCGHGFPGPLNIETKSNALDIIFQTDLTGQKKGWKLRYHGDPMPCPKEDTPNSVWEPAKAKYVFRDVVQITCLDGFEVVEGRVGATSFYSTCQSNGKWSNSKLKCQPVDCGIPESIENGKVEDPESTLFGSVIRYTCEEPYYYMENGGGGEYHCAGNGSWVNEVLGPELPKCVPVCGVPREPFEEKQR
# Test: Human C1s enzyme assay
# Assay type: biochemical
# Settings: human complement C1s enzyme 1.16 nM, substrate Z-L-Lys-SBzl, A405; read-out: IC50 (Stars)
# How it was run: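 Thioesterase activity followed colorimetrically (DTNB, A405, 30-s reads) using 100 μM Z-L-Lys-SBzl substrate. Enzyme, human serum-derived C1s at 1.16 nM final, was incubated with test compound for 5 min, room temperature, pH 7.5 Tris buffer with 1 M NaCl. Rate-versus-concentration data fitted by nonlinear regression for IC50.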
row,IC50 [nM],SMILES
1,> 1000,"C[C@H](NC(=O)Cn1c(-c2ccccc2)cnc(NCCCc2ccccc2)c1=O)c1cc2cnccc2[nH]1 [Compound 47, (S)-N-(1-(1H-pyrrolo[3,2-c]pyridin-2-yl)ethyl)-2-(2-oxo-6-phenyl-3-((3-phenylpropyl)-amino)pyrazin-1(2H)-yl)-acetamide]"
2,< 100,"Cc1cccc(-c2ncc(N[C@H](C)c3ccc4oc5ccccc5c4c3)c(=O)n2CC(=O)NCc2cc3cnccc3[nH]2)c1 [Compound 292, (R)-N-((1H-pyrrolo[3,2-c]pyr-idin-2-yl)methyl)-2-(5-((1-(dibenzo[b,d]furan-2-yl)ethyl)-amino)-6-oxo-2-(m-tolyl)pyr-imidin-1(6H)-yl)acetamide]"
3,< 100,"O=C(Cn1c(-c2ccccc2)ncc(NC(=O)c2csc(-c3ccccc3)n2)c1=O)NCc1cc2cnccc2[nH]1 [Compound 209, N-(1-(2-(((1H-pyrrolo[3,2-c]pyridin-2-yl)methyl)amino)-2-oxoethyl)-6-oxo-2-phenyl-1,6-dihydropyrimidin-5-yl)-2-phen-ylthiazole-4-carboxamide]"
4,< 100,"O=C(Cn1c(-c2ccccc2)cnc(NCc2ccc(Oc3ccccc3)cc2)c1=O)NCc1cc2cnccc2[nH]1 [Compound 63, N-((1H-pyrrolo[3,2-c]pyridine-2-yl)methyl)-2-(2-oxo-3-((4-phenoxybenzyl)amino)-6-phenylpyrazin-1(2H)-yl)acetamide]"
5,< 100,"C[C@@H](Nc1cnc(-c2cccnc2)n(CC(=O)NCc2cc3cnccc3[nH]2)c1=O)c1ccc2oc3ccccc3c2c1 [Compound 335, (R)-N-((1H-pyrrolo[3,2-c]pyridin-2-yl)methyl)-2-(5-((1-(dibenzo[b,d]furan-2-yl)ethyl)-amino)-6-oxo-2-(pyridin-3-yl)-pyrimidin-1(6H)-yl)acetamide]"
6,< 100,"O=C(Cn1c(N2CCn3c(nnc3C(F)(F)F)C2)ncc(NCCCc2ccccc2)c1=O)NCc1cc2cnccc2[nH]1 [Compound 301, N-((1H-pyrrolo[3,2-c]pyridin-2-yl)methyl)-2-(6-oxo-5-((3-phenylpropyl)amino)-2-(3-(trifluoromethyl)-5,6-dihydro-[1,2,4]triazolo[4,3-a]pyrazin-7(8H)-yl)pyrimidin-1(6H)-yl)-acetamide]"
7,< 100,"O=C(Cn1c(-c2ccccc2)ncc(NC(=O)c2cc(-c3ccccc3)cs2)c1=O)NCc1cc2cnccc2[nH]1 [Compound 210, N-(1-(2-(((1H-pyrrolo[3,2-c]pyridin-2-yl)methyl)amino)-2-oxoethyl)-6-oxo-2-phenyl-1,6-dihydropyrimidin-5-yl)-4-phen-ylthiophene-2-carboxamide]"
8,< 100,"Cc1ncc(NCc2ccc3oc4ccccc4c3c2)c(=O)n1CC(=O)NCc1cc2cnccc2[nH]1 [Compound 247, N-((1H-pyrrolo[3,2-c]pyridin-2-yl)methyl)-2-(5-((dibenzo [b,d]furan-2-ylmethyl)amino)-2-methyl-6-oxopyrimidin-1(6H)-yl)acetamide]"
9,< 100,"C[C@H](Nc1cnc(-c2ccco2)n(CC(=O)NCc2cc3cnccc3[nH]2)c1=O)c1ccc2oc3ccccc3c2c1 [Compound 273, (S)-N-((1H-pyrrolo[3,2-c]pyr-idin-2-yl)methyl)-2-(5-((1-(dibenzo[b,d]furan-2-yl)ethyl)-amino)-2-(furan-2-yl)-6-oxo-pyrimidin-1(6H)-yl)acetamide]"
10,< 100,"C[C@@H](Nc1cnc(C2=CCOCC2)n(CC(=O)NCc2cc3cnccc3[nH]2)c1=O)c1ccc2oc3ccccc3c2c1 [Compound 291, (R)-N-((1H-pyrrolo[3,2-c]pyr-idin-2-yl)methyl)-2-(5-((1-(dibenzo[b,d]furan-2-yl)ethyl)-amino)-2-(3,6-dihydro-2H-pyran-4-yl)-6-oxopyrimidin-1(6H)-yl)acetamide]"
11,< 100,"O=C(Cn1c(-c2ccccc2F)cnc(N[C@H](CF)c2ccc3oc4ccccc4c3c2)c1=O)NCc1cc2cnccc2[nH]1 [Compound 443, (S)-N-((1H-pyrrolo[3,2-c]pyridin-2-yl)methyl)-2-(3-((1-(dibenzo[b,d]furan-2-yl)-2-fluoroethyl)amino)-6-(2-fluorophenyl)-2-oxopyrazin-1(2H)-yl)acetamide]"
12,< 100,"O=C(Cn1c(-c2ccccc2)ncc(NCCCc2ccc(OC(F)(F)F)cc2)c1=O)NCc1cc2cnccc2[nH]1 [Compound 39, N-((1H-pyrrolo[3,2-c]pyridin-2-yl)methyl)-2-(6-oxo-2-phen-yl-5-((3-(4-(trifluoromethoxy)-phenyl)propyl)amino)pyrimi-din-1(6H)-yl)acetamide]"
13,< 100,"C[C@@H](Nc1ncc(-c2ccccn2)n(CC(=O)NCc2cc3cnccc3[nH]2)c1=O)c1ccc(-c2ccccc2F)cc1 [Compound 449, (R)-N-((1H-pyrrolo[3,2-c]pyridin-2-yl)methyl)-2-(3-((1-(2′-fluoro-[1,1′-biphenyl]-4-yl)ethyl)amino)-2-oxo-6-(pyridin-2-yl)pyrazin-1(2H)-yl)acetamide]"
14,< 100,"C[C@@H](Nc1cnc(N2CCCCC2)n(CC(=O)NCc2cc3cnccc3[nH]2)c1=O)c1ccc2oc3ccccc3c2c1 [Compound 361, (R)-N-((1H-pyrrolo[3,2-c]pyridin-2-yl)methyl)-2-(5-((1-(dibenzo[b,d]furan-2-yl)ethyl)-amino)-6-oxo-2-(piperidin-1-yl)pyrimidin-1(6H)-yl)acet-amide]"
15,100 to 1000,"COC[C@H]1CN(c2ncc(N[C@H](C)c3ccc4oc5ccccc5c4c3)c(=O)n2CC(=O)NCc2cc3cnccc3[nH]2)CCO1 [Compound 469, N-((1H-pyrrolo[3,2-c]pyridin-2-yl)methyl)-2-(5-(((R)-1-(dibenzo[b,d]furan-2-yl)ethyl)-amino)-2-((R)-2-(methoxy-methyl)morpholino)-6-oxo-pyrimidin-1(6H)-yl)acetamide]"
16,< 100,"O=C(Cn1c(-c2ccccc2)ncc(NC(=O)c2ccc(-c3ncco3)cc2)c1=O)NCc1cc2cnccc2[nH]1 [Compound 108, N-(1-(2-(((1H-pyrrolo[3,2-c]pyridin-2-yl)methyl)amino)-2-oxoethyl)-6-oxo-2-phenyl-1,6-dihydropyrimidin-5-yl)-4-(oxazol-2-yl)benzamide]"
17,< 100,"C[C@H](Nc1cnc(-c2ccccc2)n(CC(=O)NCc2cc3cnccc3[nH]2)c1=O)c1ccc(-c2ccccc2)cc1 [Compound 276, (S)-N-((1H-pyrrolo[3,2-c]pyr-idin-2-yl)methyl)-2-(5-((1-([1,1′-biphenyl]-4-yl)ethyl)-amino)-6-oxo-2-phenylpyrimi-din-1(6H)-yl)acetamide]"
18,> 1000,"O=C(COc1cc(C(=O)NCc2ccc3oc4ccccc4c3c2)nc(-c2ccccc2)n1)NCc1cc2cnccc2[nH]1 [Compound 268, 6-(2-(((1H-pyrrolo[3,2-c]pyridine-2-yl)methyl)amino)-2-oxoethoxy)-N-(dibenzo[b,d]furan-2-ylmethyl)-2-phenylpyrimidine-4-carboxamide]"
19,< 100,"C[C@@H](Nc1ncc(C2CCCC2)n(CC(=O)NCc2cc3cnccc3[nH]2)c1=O)c1ccc2oc3ccccc3c2c1 [Compound 420, (R)-N-((1H-pyrrolo[3,2-c]pyridin-2-yl)methyl)-2-(6-cyclopentyl-3-((1-(dibenzo [b,d]furan-2-yl)ethyl)amino)-2-oxopyrazin-1(2H)-yl)acet-amide]"
